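Following 48 hours of exposure in 96-well plates, responses at five concentrations were used to interpolate endpoints linearly. Here, GI50 denotes the concentration required for 50% inhibition of growth. At the TGI there is no net growth.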
How the values were obtained:
Assay in all cases: growth of human tumour cells (NCI), 48 h
[1] = system: A498 renal
[2] = system: EKVX NSCLC
[3] = system: SN12C renal
[4] = system: MCF7 breast
[5] = system: OVCAR-8 ovarian
[6] = system: HOP-62 NSCLC
[7] = system: DU-145 prostate
[8] = system: COLO 205 colon
[9] = system: OVCAR-4 ovarian
[10] = system: TK-10 renal

SMILES | TGI [1] [µM] | TGI [2] [µM] | TGI [3] [µM] | TGI [4] [µM] | TGI [5] [µM] | TGI [6] [µM] | TGI [7] [µM] | TGI [8] [µM] | TGI [9] [µM] | TGI [10] [µM] | GI50 [3] [µM] | GI50 [6] [µM] | GI50 [7] [µM]
CC1=CCC[C@H]2[C@](C)(CC3=CC(=O)C4SCCSC4C3=O)[C@@H](C)CC[C@]12C (stereo not given in full) | 31.2 | 54.4 | 28.8 | 63.8 | 39.6 | 31.1 | 66.9 | 35.9 | > 100 | – | – | – | –
C[C@@H]1C(=O)CC2(O)[C@@]13C[C@@H](OC(=O)[C@@H]3O)[C@@H](C)[C@@]21COC1=O (stereo not given in full) | – | > 100 | > 100 | > 100 | > 100 | > 100 | > 100 | > 100 | > 100 | > 100 | – | – | –
COc1cc(OC)c(C2c3cc4c(cc3OC(N3CCOCC3)C2C)OCO4)c(OC)c1 (stereo not given) | – | > 100 | > 100 | > 100 | > 100 | > 100 | > 100 | > 100 | – | > 100 | – | – | –
CCN(CC)C(=S)SS(=O)(=O)c1ccc(C)cc1 | > 100 | > 100 | 49.7 | – | 40.2 | 85.5 | > 100 | 63.7 | > 100 | > 100 | – | – | –
CCOC(=O)C1=C(C)NC(=O)N([N+](=O)[O-])C1c1ccccc1C(F)(F)F (stereo not given) | > 100 | – | > 100 | > 100 | > 100 | > 100 | > 100 | > 100 | > 100 | > 100 | – | – | –
C(=N/Nc1ccc(-c2nc3ccccc3[nH]2)cc1)/c1c(-c2ccccc2)[nH]c2ccccc12 | – | > 100 | – | > 100 | > 100 | 30.9 | > 100 | – | > 100 | > 100 | – | – | –
COc1cc2c3c(n(C)c(=O)c2cc1OC)-c1cc2c(cc1/C3=C/CCCCBr)OCO2 | 87.4 | > 100 | > 100 | > 100 | > 100 | > 100 | > 100 | > 100 | – | > 100 | > 100 | 26.6 | 4.46
COC(=O)C(CCCCNC(=O)CNC(=O)OCc1ccccc1)NC(=O)C(CCCCNC(=O)CNC(=O)OCc1ccccc1)NC(=O)OCc1ccccc1 (stereo not given) | > 100 | – | > 100 | 19.1 | > 100 | > 100 | > 100 | – | 89.9 | > 100 | – | – | –
C=C1CC2C(=O)N(c3ccccc3)C(=O)C2CC1n1[nH]c(=O)n(Cc2ccccc2)c1=O (stereo not given) | > 100 | > 100 | > 100 | – | > 100 | > 100 | – | > 100 | > 100 | > 100 | – | – | –
NC(CCSCC(F)F)C(=O)O (stereo not given) | > 100 | > 100 | > 100 | – | > 100 | > 100 | – | > 100 | > 100 | > 100 | – | – | –
CCOC(=O)c1[nH]c2nc(SC)nc(NC)c2c1N | > 100 | – | > 100 | – | > 100 | > 100 | > 100 | > 100 | > 100 | > 100 | – | – | –
CC1(C)OC(CCO)CN1C(=O)OCc1ccccc1 (stereo not given) | > 100 | > 100 | > 100 | > 100 | > 100 | – | > 100 | > 100 | > 100 | > 100 | – | – | –
O=c1c2cc3c(=O)n(CCc4ccccc4CO)c(=O)c3cc2c(=O)n1CCc1ccccc1CO | > 100 | – | > 100 | – | > 100 | – | – | – | > 100 | > 100 | – | – | –
NNC(=O)c1cccc2c1Oc1ccccc1S2 | > 100 | > 100 | – | > 100 | > 100 | > 100 | > 100 | > 100 | > 100 | > 100 | – | – | –
CCOC(=O)C(C)NC(=O)N(C)C12CC3CC(CC(C3)C1)C2 (stereo not given) | 442 | > 500 | > 500 | 395 | > 500 | > 422 | – | > 316 | > 472 | – | – | – | –
CCC1C(=O)OCc2c1cc1n(c2=O)CCC12OCCO2 (stereo not given) | > 100 | > 100 | > 100 | – | > 100 | > 100 | – | > 100 | > 100 | > 100 | – | – | –
O=c1c(Cc2ccccc2)c(-c2ccccc2)[nH]n1C1=NCCN1 | > 100 | > 100 | – | > 100 | > 100 | > 100 | – | > 100 | > 100 | > 100 | – | – | –
COP(=O)(CC(=O)C1OC(OCc2ccccc2)C(OCc2ccccc2)C(OCc2ccccc2)C1OCc1ccccc1)OC (stereo not given) | – | 50.4 | 11.2 | 37.4 | > 100 | > 100 | > 100 | 15 | 8.89 | 79.8 | – | – | –
CCOC(=O)Cc1nn2c(=O)cc(C)nc2s1 | – | > 100 | > 100 | > 100 | > 100 | > 100 | > 100 | > 100 | > 100 | > 100 | – | – | –
O=C(NN1C(=O)CSC1c1ccc(Cl)c(Cl)c1)c1ccncc1 (stereo not given) | > 100 | > 100 | > 100 | – | > 100 | – | – | > 100 | > 100 | > 100 | – | – | –
COc1cc(CCCOC2OC(COC3OCC(O)C(O)C3O)C(O)C(O)C2O)cc2cc(-c3ccc4c(c3)OCO4)oc12 (stereo not given) | > 27.7 | > 175 | 99.5 | > 175 | 109 | > 175 | – | > 175 | > 175 | – | – | – | –
CCOC(=O)c1csc(NC(=O)CCCC#N)n1 | > 100 | – | – | > 100 | > 100 | > 100 | > 100 | > 100 | > 100 | > 100 | – | – | –
O=C(c1ccccc1)[C@H]1Nc2cnccc2C2c3ccccc3CC21 (stereo not given in full) | 75.4 | 71 | 31.8 | – | 33.9 | > 71.4 | – | 42.9 | > 76.9 | > 81.9 | – | – | –
CN1c2ccccc2C(=O)NC12CCN(CC1COc3ccccc3O1)CC2 (stereo not given) | 98.4 | > 100 | – | > 100 | > 100 | > 100 | > 100 | > 100 | > 100 | > 100 | – | – | –

Reference: PubChem BioAssay (NCI)
